The text below walks through data of ChEMBL document CHEMBL1201862, “PubChem BioAssay data set” (2004).

For experiment [1], the target named is T1, Dual specificity protein phosphatase 3 (Homo sapiens, UniProt P51452). Briefly: SAR VHR1 Fluorescent Assay for In Vitro dose response studies Set 2. [Related pubchem assays (depositor defined):AID1654, AID1661, AID1878]. It counts as functional.
Experiment [2] deals with T2, Tyrosine-protein phosphatase non-receptor type 7 (Homo sapiens, UniProt P35236).
T2 sequence (P35236 whole entry): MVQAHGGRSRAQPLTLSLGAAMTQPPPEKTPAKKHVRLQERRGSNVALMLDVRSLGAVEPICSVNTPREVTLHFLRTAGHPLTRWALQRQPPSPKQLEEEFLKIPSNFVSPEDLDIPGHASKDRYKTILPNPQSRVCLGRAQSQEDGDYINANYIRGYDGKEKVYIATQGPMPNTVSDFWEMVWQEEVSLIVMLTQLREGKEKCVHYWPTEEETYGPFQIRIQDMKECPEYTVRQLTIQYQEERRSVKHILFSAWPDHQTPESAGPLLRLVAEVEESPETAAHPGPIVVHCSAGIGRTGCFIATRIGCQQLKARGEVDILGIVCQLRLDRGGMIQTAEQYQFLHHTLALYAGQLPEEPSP
Briefly: SAR analysis of chemical inhibitors of HePTP using a Fluorescent assay - Set 2. [Related pubchem assays (depositor defined):AID1059, AID1077, AID1661, AID2085, AID521]. It counts as functional.

A short description of experiment [3]: inhibition of K1F phage lysis, E. coli UTI89, bacterial capsule biogenesis inhibitors, alamar blue (AID 488966). The format is functional. A general note: Resazurin is reduced to fluorescent resorufin, in cell work by metabolically active cells.
Experiment [4] addresses T3, Tyrosine-protein phosphatase non-receptor type 12 (Homo sapiens, UniProt Q05209).
T3 sequence (Q05209 whole entry): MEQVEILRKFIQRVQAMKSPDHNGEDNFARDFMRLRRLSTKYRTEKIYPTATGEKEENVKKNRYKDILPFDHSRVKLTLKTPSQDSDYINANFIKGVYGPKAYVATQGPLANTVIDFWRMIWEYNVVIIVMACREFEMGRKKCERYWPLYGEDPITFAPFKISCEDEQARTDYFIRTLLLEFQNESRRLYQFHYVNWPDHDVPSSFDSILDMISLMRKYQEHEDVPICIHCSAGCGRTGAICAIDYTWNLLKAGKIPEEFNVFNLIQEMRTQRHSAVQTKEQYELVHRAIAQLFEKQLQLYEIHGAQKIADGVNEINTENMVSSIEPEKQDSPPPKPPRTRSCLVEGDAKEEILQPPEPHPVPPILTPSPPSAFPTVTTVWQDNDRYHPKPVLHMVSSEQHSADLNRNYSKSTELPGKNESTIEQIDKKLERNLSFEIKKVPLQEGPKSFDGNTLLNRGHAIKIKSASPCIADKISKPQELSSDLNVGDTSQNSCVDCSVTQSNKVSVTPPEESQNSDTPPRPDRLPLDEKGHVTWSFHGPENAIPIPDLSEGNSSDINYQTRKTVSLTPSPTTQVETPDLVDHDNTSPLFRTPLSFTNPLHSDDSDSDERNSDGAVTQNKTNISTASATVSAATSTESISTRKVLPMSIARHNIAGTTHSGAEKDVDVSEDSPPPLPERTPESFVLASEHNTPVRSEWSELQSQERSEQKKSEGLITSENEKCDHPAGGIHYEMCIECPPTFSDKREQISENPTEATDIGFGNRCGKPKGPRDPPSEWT
Put plainly: SAR Selectivity Analysis of small molecule inhibitors of PEST using pCAP in a fluorescence assay. [Related pubchem assays (depositor defined):AID1779, AID1784, AID2135]. It counts as functional.

Experiment [5] concerns the target T4, Tyrosine-protein phosphatase non-receptor type 22 (Homo sapiens, UniProt Q9Y2R2).
T4 sequence (Q9Y2R2 whole entry): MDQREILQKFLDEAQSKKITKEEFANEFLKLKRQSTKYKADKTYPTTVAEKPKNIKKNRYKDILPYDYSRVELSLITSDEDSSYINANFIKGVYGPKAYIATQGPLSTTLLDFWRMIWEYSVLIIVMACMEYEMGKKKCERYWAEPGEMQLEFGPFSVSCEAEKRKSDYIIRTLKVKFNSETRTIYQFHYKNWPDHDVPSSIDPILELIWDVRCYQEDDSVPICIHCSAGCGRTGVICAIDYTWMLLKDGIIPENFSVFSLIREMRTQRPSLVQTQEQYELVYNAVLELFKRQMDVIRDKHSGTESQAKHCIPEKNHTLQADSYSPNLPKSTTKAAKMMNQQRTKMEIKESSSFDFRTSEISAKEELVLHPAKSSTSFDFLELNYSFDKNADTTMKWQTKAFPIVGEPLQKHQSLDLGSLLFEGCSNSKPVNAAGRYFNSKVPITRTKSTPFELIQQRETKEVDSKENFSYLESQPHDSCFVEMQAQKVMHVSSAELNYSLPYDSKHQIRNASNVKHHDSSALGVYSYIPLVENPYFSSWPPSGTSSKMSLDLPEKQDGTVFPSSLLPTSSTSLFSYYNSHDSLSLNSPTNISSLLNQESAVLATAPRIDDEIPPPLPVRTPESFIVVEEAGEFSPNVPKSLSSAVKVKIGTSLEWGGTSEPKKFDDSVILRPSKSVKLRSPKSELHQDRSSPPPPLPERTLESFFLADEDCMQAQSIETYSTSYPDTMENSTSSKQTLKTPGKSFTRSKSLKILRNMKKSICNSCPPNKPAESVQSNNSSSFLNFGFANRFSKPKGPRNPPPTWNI
Put plainly: SAR LYP1 Fluorescent Assay using OMFP substrate for In Vitro dose response studies - Set 3. [Related pubchem assays (depositor defined):AID1779, AID1784, AID2140, AID2686]. It counts as functional.

Experiment [6] deals with T2, Tyrosine-protein phosphatase non-receptor type 7. Put plainly: redox-dependent HePTP inhibition, mechanism study, biochemical, fluorescence (AID 2068). It counts as functional.
Experiment [7] deals with T5, Dual specificity protein phosphatase 6 (Rattus norvegicus, UniProt Q64346).
T5 sequence (Q64346 whole entry): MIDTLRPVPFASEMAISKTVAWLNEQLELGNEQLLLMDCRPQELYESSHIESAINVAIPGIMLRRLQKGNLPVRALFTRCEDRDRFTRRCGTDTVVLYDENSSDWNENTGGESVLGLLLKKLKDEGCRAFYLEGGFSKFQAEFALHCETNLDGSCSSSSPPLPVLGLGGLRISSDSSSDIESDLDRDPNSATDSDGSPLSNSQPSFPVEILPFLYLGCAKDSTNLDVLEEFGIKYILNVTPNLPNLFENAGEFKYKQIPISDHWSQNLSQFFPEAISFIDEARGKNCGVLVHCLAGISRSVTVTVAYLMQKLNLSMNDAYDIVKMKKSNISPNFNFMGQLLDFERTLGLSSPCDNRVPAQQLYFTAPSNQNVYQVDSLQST
The format is functional.

The target in experiment [8] is T1, Dual specificity protein phosphatase 3. Briefly: MOA VHR1 Fluorescent secondary assay for identification of redox-state modulating compounds. [Related pubchem assays (depositor defined):AID1654, AID1661, AID1878, AID1957].
Experiment [9] addresses T2, Tyrosine-protein phosphatase non-receptor type 7. Briefly: HePTP (PTPN7) phosphatase inhibitor potency, SAR follow-up, biochemical, set 2 (AID 449736). It counts as functional.
The target in experiment [10] is T1, Dual specificity protein phosphatase 3. Briefly: SAR VHR1 Fluorescent Assay for In Vitro dose response studies. [Related pubchem assays (depositor defined):AID1654, AID1661, AID1878, AID1992, AID2004, AID2070, AID2085]. The format is functional.
For experiment [11], the target named is Signal transducer and activator of transcription 3 (Homo sapiens, UniProt P40763). Put plainly: STAT3 activators, late-stage profile, late-stage follow-up, cell-based, STAT1 reporter, BCL3 qPCR, cytotoxicity, panel member STAT3 Activation (AID 2049). (Quantitative PCR measures a nucleic acid by following its amplification.)
Chain of Signal transducer and activator of transcription 3 (P40763 whole entry): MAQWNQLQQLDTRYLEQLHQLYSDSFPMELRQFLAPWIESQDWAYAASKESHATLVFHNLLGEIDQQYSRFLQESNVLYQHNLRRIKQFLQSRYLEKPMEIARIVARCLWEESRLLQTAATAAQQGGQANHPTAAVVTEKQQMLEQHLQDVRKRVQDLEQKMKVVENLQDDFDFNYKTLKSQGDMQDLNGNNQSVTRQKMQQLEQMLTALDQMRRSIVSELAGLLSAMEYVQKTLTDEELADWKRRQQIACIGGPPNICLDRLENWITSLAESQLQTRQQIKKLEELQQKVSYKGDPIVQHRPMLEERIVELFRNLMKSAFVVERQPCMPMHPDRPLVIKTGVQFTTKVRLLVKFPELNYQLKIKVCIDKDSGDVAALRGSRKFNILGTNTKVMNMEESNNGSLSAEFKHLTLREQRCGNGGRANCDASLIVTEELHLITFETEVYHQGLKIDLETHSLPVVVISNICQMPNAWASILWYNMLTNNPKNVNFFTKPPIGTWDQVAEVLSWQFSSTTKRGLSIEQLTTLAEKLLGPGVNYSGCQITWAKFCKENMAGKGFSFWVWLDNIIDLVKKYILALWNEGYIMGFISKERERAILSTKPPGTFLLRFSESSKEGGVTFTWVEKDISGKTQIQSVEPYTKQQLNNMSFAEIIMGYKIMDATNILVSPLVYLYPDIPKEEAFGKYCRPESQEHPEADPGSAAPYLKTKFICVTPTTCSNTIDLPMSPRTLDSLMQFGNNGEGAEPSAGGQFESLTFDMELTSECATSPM
Experiment [12] addresses Cystic fibrosis transmembrane conductance regulator/Golgi-associated PDZ and coiled-coil motif-containing protein (Homo sapiens, UniProt P13569+Q9HD26). Briefly: CAL PDZ peptide-binding inhibitors, dose response, biochemical, fluorescence polarization, Cerulean-tagged CAL PDZ, cherry-picks (AID 504773). (Polarisation of emitted light reports the rotation of a fluorescent probe.)

Molecules are shown by their SMILES. Calls of active or inactive are those of the source. Cut-off read from the data, not from the text of the source, for most assays here: actives have a measured IC50 and inactives only a lower limit. A value given as a limit tells only on which side of the number the result lay.

T1 sequence (P51452 whole entry): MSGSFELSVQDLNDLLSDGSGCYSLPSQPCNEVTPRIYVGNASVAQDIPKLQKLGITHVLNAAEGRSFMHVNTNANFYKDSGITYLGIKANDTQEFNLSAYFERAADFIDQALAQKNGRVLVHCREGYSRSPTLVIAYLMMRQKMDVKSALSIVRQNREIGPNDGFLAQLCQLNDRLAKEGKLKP
Chain of Cystic fibrosis transmembrane conductance regulator/Golgi-associated PDZ and coiled-coil motif-containing protein (P13569 whole entry, other chains not shown): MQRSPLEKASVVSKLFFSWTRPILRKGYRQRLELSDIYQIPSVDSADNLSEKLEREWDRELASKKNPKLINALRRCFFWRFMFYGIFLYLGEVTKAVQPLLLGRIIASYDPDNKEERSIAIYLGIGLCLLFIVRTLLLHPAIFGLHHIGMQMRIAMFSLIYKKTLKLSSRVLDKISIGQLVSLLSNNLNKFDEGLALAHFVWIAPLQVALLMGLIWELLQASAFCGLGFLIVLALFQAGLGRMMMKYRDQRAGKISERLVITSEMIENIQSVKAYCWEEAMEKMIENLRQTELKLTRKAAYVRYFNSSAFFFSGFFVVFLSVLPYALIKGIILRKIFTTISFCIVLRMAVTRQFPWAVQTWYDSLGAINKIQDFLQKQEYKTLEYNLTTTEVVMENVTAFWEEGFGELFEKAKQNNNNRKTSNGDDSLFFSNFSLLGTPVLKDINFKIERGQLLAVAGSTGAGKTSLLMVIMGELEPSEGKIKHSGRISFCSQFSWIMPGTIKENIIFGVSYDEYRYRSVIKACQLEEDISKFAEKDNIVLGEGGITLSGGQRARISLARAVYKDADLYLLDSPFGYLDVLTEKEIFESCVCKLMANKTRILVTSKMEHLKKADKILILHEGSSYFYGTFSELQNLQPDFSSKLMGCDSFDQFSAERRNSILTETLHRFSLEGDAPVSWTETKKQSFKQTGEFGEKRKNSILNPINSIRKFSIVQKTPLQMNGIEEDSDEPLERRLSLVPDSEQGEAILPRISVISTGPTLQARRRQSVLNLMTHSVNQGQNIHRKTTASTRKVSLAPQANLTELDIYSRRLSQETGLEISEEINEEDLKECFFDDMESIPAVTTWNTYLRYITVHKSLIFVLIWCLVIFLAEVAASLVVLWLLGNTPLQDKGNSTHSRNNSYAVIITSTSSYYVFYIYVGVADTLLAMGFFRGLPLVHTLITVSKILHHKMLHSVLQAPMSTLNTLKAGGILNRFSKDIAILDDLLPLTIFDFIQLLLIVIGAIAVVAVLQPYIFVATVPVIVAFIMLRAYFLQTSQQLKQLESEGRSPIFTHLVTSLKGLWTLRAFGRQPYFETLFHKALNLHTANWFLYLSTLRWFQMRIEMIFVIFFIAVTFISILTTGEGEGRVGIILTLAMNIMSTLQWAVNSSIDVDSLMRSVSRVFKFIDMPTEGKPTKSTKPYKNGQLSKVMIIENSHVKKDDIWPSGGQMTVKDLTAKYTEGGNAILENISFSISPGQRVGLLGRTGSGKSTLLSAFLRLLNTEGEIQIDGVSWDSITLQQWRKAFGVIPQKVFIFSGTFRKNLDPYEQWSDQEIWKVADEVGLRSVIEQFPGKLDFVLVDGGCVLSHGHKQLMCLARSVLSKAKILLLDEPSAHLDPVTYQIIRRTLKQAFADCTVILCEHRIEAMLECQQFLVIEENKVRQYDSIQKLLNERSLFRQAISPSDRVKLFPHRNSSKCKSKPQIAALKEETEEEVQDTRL

Broadly, the IC50 is the concentration at which inhibition is half-maximal. As to `COc1cc(C(=S)NCc2ccc(C(F)(F)F)cc2)ccc1O`, the IC50 in [1] is 86.9 µM (active); in experiment [2], > 100 µM (inactive).
As for `OC(CNc1ccnc2cc(Cl)ccc12)CNC1CCCCC1` (stereo not drawn), in [3], the concentration for half-maximal inhibition (IC50) is > 150 µM (active).
In the case of `CCOC(=O)C1=C(C)N=c2s/c(=C/c3cc(Cl)c(OCC(=O)O)c(OC)c3)c(=O)n2C1c1ccccc1Cl` (stereo not drawn), the half-maximal inhibitory concentration (IC50) in [4] was 7.63 µM (active); in [5], 30.5 µM (active); in experiment [6], 1.65 µM (active); in [7] it was 39.5 µM (active); in [8], 3.07 µM (active); in experiment [9] it was 1.72 µM (active). For the same compound, the IC50 in [1] is 41.1 µM (active); in [10], 15.1 µM (active).
In general, EC50 refers to the midpoint of the concentration-response curve. Consider `O=C(Nc1ccccc1Cl)c1cc(C2CC2)on1`, for which the EC50 in experiment [11] is 6.08 µM (active).
For orientation: AC50 means the concentration at which the activity in the assay is half-maximal. Regarding `OC(c1ccccc1)(c1ccccc1)c1nccc2ccccc12`, in experiment [12], the AC50 is 44.9 µM (active).
